# In PubChem BioAssay (NCI):
#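 Values below derive from 48-hour exposures of cells grown in 96-well plates, with endpoints linearly interpolated between the two concentrations bracketing the appropriate inhibition level. TGI denotes the concentration required for complete inhibition of growth.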
# Tests used:
# Experiment in all cases: DTP human tumour cell line panel, 48 h
# [1] = tested on: HCT-15 colon
# [2] = tested on: MDA-N
# [3] = tested on: MDA-MB-231 breast
# [4] = tested on: MCF7 breast
# [5] = tested on: CCRF-CEM leukemia
# [6] = tested on: M14 melanoma
# [7] = tested on: LOX IMVI melanoma
# [8] = tested on: OVCAR-8 ovarian
# [9] = tested on: MALME-3M melanoma
# [10] = tested on: NCI/ADR-RES ovarian
# [11] = tested on: EKVX NSCLC
# [12] = tested on: SR leukemia
# [13] = tested on: UACC-62 melanoma
# [14] = tested on: SF-295 CNS
# [15] = tested on: OVCAR-4 ovarian
# [16] = tested on: HCC-2998 colon
# [17] = tested on: T-47D breast
# [18] = tested on: OVCAR-5 ovarian
# [19] = tested on: SW-620 colon
# [20] = tested on: MOLT-4 leukemia
# [21] = tested on: SK-OV-3 ovarian
# [22] = tested on: K-562 leukemia
# [23] = tested on: UO-31 renal
# [24] = tested on: HOP-92 NSCLC
# [25] = tested on: CAKI-1 renal
# [26] = tested on: NCI-H23 lung
# [27] = tested on: NCI-H460 lung
# [28] = tested on: IGROV1 ovarian
# [29] = tested on: OVCAR-3 ovarian
# [30] = tested on: SF-539 CNS
# [31] = tested on: TK-10 renal
# [32] = tested on: RPMI-8226 leukemia
# [33] = tested on: MDA-MB-435
# [34] = tested on: SF-268 CNS
# [35] = tested on: UACC-257 melanoma
# [36] = tested on: HL-60(TB) leukemia
# [37] = tested on: SK-MEL-5 melanoma
# [38] = tested on: SNB-75 CNS
# [39] = tested on: SNB-19 CNS
# [40] = tested on: NCI-H226 lung
# [41] = tested on: A549 NSCLC
# [42] = tested on: HCT-116 colon
# [43] = tested on: HS 578T breast
# [44] = tested on: SK-MEL-2 melanoma
# [45] = tested on: SK-MEL-28 melanoma
# [46] = tested on: SN12C renal
# [47] = tested on: HOP-62 NSCLC
# [48] = tested on: COLO 205 colon
# [49] = tested on: HT29 colon
# [50] = tested on: KM12 colon
# [51] = tested on: RXF 393 renal
# [52] = tested on: DU-145 prostate
# [53] = tested on: ACHN renal
# [54] = tested on: U251 CNS
# [55] = tested on: 786-0 renal
# [56] = tested on: PC-3 prostate
# [57] = tested on: A498 renal
compound,measurement,setting,value
c1ccc(C[n+]2ccc3c(c2)CCCC3)cc1,TGI,[1],> 100 µM
same,TGI,[2],> 100 µM
same,TGI,[3],> 100 µM
same,TGI,[4],> 100 µM
same,TGI,[5],> 100 µM
same,TGI,[6],> 100 µM
same,TGI,[7],> 100 µM
same,TGI,[8],> 100 µM
same,TGI,[9],> 100 µM
same,TGI,[10],> 100 µM
same,TGI,[11],85.8 µM
same,TGI,[12],> 100 µM
same,TGI,[13],> 100 µM
same,TGI,[14],> 100 µM
same,TGI,[15],> 100 µM
same,TGI,[16],> 100 µM
same,TGI,[17],> 100 µM
same,TGI,[18],> 100 µM
same,TGI,[19],> 100 µM
same,TGI,[20],> 100 µM
same,TGI,[21],> 100 µM
same,TGI,[22],> 100 µM
same,TGI,[23],> 100 µM
same,TGI,[24],> 100 µM
same,TGI,[25],> 100 µM
same,TGI,[26],> 100 µM
same,TGI,[27],> 100 µM
same,TGI,[28],> 100 µM
same,TGI,[29],> 100 µM
same,TGI,[30],> 100 µM
same,TGI,[31],> 100 µM
same,TGI,[32],> 100 µM
same,TGI,[33],> 100 µM
same,TGI,[34],> 100 µM
same,TGI,[35],> 100 µM
same,TGI,[36],> 100 µM
same,TGI,[37],> 100 µM
same,TGI,[38],> 100 µM
same,TGI,[39],> 100 µM
same,TGI,[40],> 100 µM
same,TGI,[41],> 100 µM
same,TGI,[42],> 100 µM
same,TGI,[43],> 100 µM
same,TGI,[44],> 100 µM
same,TGI,[45],> 100 µM
same,TGI,[46],> 100 µM
same,TGI,[47],> 100 µM
same,TGI,[48],> 100 µM
same,TGI,[49],> 100 µM
same,TGI,[50],> 100 µM
same,TGI,[51],> 100 µM
same,TGI,[52],> 100 µM
same,TGI,[53],> 100 µM
same,TGI,[54],> 100 µM
same,TGI,[55],> 100 µM
same,TGI,[56],> 100 µM
CC(C)=CCc1ccc2[nH]c3c(c2c1)C(=O)C(=O)C(C)=C3C(O)C(C)O (stereo not drawn),TGI,[1],16.3 µM
same,TGI,[2],19.7 µM
same,TGI,[3],15.8 µM
same,TGI,[4],3.4 µM
same,TGI,[5],4.98 µM
same,TGI,[6],3.9 µM
same,TGI,[7],4.73 µM
same,TGI,[8],3.91 µM
same,TGI,[9],3.37 µM
same,TGI,[10],> 85.4 µM
same,TGI,[11],30.1 µM
same,TGI,[12],12.4 µM
same,TGI,[13],11.6 µM
same,TGI,[14],25 µM
same,TGI,[15],13.2 µM
same,TGI,[16],14.8 µM
same,TGI,[17],6.11 µM
same,TGI,[18],34.2 µM
same,TGI,[19],4.7 µM
same,TGI,[20],4.83 µM
same,TGI,[21],29.7 µM
same,TGI,[22],5.78 µM
same,TGI,[23],2.96 µM
same,TGI,[24],3.51 µM
same,TGI,[25],11.5 µM
same,TGI,[26],31.8 µM
same,TGI,[27],37.2 µM
same,TGI,[28],7.2 µM
same,TGI,[29],13 µM
same,TGI,[57],25.8 µM
same,TGI,[30],34 µM
same,TGI,[31],4.76 µM
same,TGI,[32],6.17 µM
same,TGI,[33],9.57 µM
same,TGI,[34],25 µM
same,TGI,[35],3.71 µM
same,TGI,[36],2.53 µM
same,TGI,[37],7.22 µM
same,TGI,[38],34.1 µM
same,TGI,[39],31 µM
same,TGI,[40],34.2 µM
same,TGI,[41],56.5 µM
same,TGI,[42],3.43 µM
same,TGI,[43],50.1 µM
same,TGI,[44],> 82.9 µM
same,TGI,[45],28.1 µM
same,TGI,[46],45.8 µM
same,TGI,[47],37.8 µM
same,TGI,[48],4.89 µM
same,TGI,[49],35.1 µM
same,TGI,[50],30.1 µM
same,TGI,[51],4.68 µM
same,TGI,[52],22.4 µM
same,TGI,[53],11.5 µM
same,TGI,[54],13.2 µM
same,TGI,[55],3.27 µM
same,TGI,[56],43.4 µM
